According to ChEMBL document CHEMBL5038664, “Thieno[2,3-d]pyrimidine-Based Positive Allosteric Modulators of Human Mas-Related G Protein-Coupled Receptor X1 (MRGPRX1)” (J Med Chem, 2022):

Molecular target: T1, Mas-related G-protein coupled receptor member X1 (Homo sapiens, UniProt Q96LB2)
Assay: Positive allosteric modulator activity at human MRGPRX1 transfected in HEK293 cells in presence of BAM8-22 by Fulo4AM dye based FLIPR assay
Format: cell-based
Settings: not given

T1 sequence (Q96LB2 whole entry): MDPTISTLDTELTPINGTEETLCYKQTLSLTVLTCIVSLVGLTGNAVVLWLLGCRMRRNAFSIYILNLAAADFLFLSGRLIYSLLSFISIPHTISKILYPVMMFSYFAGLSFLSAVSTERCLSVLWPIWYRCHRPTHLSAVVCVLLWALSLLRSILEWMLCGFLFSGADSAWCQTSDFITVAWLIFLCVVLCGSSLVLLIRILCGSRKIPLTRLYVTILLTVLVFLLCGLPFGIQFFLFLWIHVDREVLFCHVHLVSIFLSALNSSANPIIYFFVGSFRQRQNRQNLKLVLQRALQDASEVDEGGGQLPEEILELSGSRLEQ

Structure (SMILES)	EC50 [nM]
Cc1csc2ncnc(Oc3ccccc3F)c12	1700
Cc1ccccc1Oc1ncnc2sccc12	14500
Cc1sc2ncnc(Oc3cccc(C(F)(F)F)c3)c2c1C	> 100000
Cc1ccc(Oc2ncnc3sc(C)c(C)c23)cc1	2700
Cc1sc2ncnc(Oc3ccccc3C(F)(F)F)c2c1C	520
Cc1cc2c(Oc3ccccc3F)ncnc2s1	1500

Now from value to compound:

EC50 [nM]	Structure (SMILES)
480	Cc1ccccc1Oc1ncnc2sc(C)c(C)c12
30000	Cc1sc2ncnc(Oc3cccc(F)c3)c2c1C
25000	Cc1cccc(Oc2ncnc3sc(C)c(C)c23)c1
1600	Cc1sc2ncnc(Oc3ccccc3)c2c1C

Molecular target: T1, Mas-related G-protein coupled receptor member X1
Assay: Positive allosteric modulator activity at human MRGPRX1 transfected in HEK293 cells assessed as maximal efficacy in presence of BAM8-22 by Fulo4AM dye based FLIPR assay relative to control
Format: cell-based
Settings: filed as positive allosteric modulator

Structure (SMILES)	Emax [%]
Cc1csc2ncnc(Oc3ccccc3F)c12	94
Cc1ccccc1Oc1ncnc2sccc12	88
Cc1ccc(Oc2ncnc3sc(C)c(C)c23)cc1	88
Cc1sc2ncnc(Oc3ccccc3C(F)(F)F)c2c1C	95
Cc1cc2c(Oc3ccccc3F)ncnc2s1	90

More lines, now with the values ahead:

Emax [%]	Structure (SMILES)
118	Cc1ccccc1Oc1ncnc2sc(C)c(C)c12
55	Cc1sc2ncnc(Oc3cccc(F)c3)c2c1C
40	Cc1cccc(Oc2ncnc3sc(C)c(C)c23)c1
89	Cc1sc2ncnc(Oc3ccccc3)c2c1C
